{"source": "patent US20160355503A1", "about": "“NITROGEN HEXACYCLE COMPOUNDS AS INHIBITORS OF p97 COMPLEX” (Cleave Biosciences, Inc., priority 2015, published 2016)", "key": {"p97": {"biological_target": "p97 (Homo sapiens, UniProt P55072)", "sequence (P55072 whole entry)": "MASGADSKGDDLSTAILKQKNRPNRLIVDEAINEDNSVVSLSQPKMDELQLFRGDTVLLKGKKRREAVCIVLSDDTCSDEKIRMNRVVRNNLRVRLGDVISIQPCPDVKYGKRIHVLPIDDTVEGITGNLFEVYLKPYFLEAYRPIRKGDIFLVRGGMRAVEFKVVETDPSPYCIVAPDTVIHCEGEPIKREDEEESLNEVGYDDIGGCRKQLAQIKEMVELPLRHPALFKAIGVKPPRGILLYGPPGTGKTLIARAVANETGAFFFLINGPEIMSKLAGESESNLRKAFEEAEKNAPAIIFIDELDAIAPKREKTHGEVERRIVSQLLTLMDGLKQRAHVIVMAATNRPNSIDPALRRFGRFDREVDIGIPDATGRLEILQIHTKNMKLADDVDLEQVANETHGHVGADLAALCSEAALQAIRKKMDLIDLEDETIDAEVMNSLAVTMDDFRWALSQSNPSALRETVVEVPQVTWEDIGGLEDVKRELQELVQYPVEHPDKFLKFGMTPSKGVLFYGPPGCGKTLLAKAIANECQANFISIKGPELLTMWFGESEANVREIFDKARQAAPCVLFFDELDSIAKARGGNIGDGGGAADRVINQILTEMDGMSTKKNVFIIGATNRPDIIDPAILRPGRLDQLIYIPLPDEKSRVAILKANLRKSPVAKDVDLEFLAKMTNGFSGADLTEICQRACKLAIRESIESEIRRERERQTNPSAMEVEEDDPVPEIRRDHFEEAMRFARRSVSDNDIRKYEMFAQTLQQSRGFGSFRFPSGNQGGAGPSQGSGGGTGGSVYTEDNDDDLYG", "assay": "P97 ATPase biochemical assay (ADP Glo)", "conditions": "20 nM p97, 20 μM ATP, 37° C. for 15 minutes", "description": "The ATPase assay is performed according the following protocol: Purified enzyme (20 nM p97), substrate (20 μM ATP) and a dose titration of compounds are mixed in buffer (50 mM TRIS pH 7.5, 20 mM MgCl2, 0.02% TX-100, 1 mM DTT, 0.2% (v/v) glycerol) and incubated at 37° C. for 15 minutes. The reaction is terminated and the level of product generated is measured using the ADP Glo Assay Kit (Promega, Madison Wis.). Plotting product generated versus compound concentration and using a four-parameter fit model generates an IC50 value for each compounds.\nThe p97 assay is an initial screening assay used to determine inhibitory activity of the triazine compounds of the invention against the p97 complex. As discussed above, inhibition of activity of the p97 proteosome complex can enable apoptosis and cause elimination of neoplastic cells (cancer cells). The method follows that of Christianson in Nat. Cell Biol., (2011) 14:93.\nAssay Buffer is a mixture of 50 mM TRIS pH 7.5, 20 mM MgCl2, 0.02% TX-100, 1 mM DTT and 0.2% (v/v) Glycerol. The well plate is Platetype: Corning 3674, 384w plate. The identification kit is an ADP glo kit (Promega): stop buffer, detection reagent.\nSerial dilute compound in DMSO in a 1:3.33-fold 10 point serial dilution.\nin each well of 384w plate add the following reagents:\n0.5 μL compound serial diluted in DMSO (Final Conc. 10%)\n2 μL ATP (Final Conc.=20 uM, diluted in assay buffer)\n2.5 μL p97 (Final Conc.=20 nM, diluted in assay buffer)\nIncubate at 37 deg C. for 15 min.\nAdd 5 μL of stop buffer, incubate at RT for 40 min.\nAdd 10 μL of detection reagent, incubate at RT for 30 min.\nRead luminescence on Envision plate reader.\nUpon obtaining the data from the luminescence reading, the data may be analyzed as follows:\nNormalize luminescence data using no enzyme (full inhibition) and no compound (no inhibition) controls. Plot normalized luminescence data against log-transformed concentration values and fit to a sigmoidal curve to determine IC50 values (done in Collaborative Drug Discovery software)."}, "A549 cells": {"test_system": "A549 cells", "assay": "Cultured cancer cell viability assay (cell titer glo, CTG)", "type": "cell-based", "conditions": "Homo sapiens, 72 hr incubation", "source_text": "Anti-tumor effects are monitored in cultured cancer cells after several days of compound treatment. The cell titer glo assay (Promega) measures the amount of ATP present as a proxy for cellular viability. Cellular counting is done using high-content microscopy followed by image analysis. A hanging drop 3D-culture system (3D Biomatrix) is used followed by cell titer glo to measure growth in a tumor-like environment.\n(§1) The cellular assay provides information about the anti-neoplastic activity of the compounds of the invention. The compounds are tested against cultured cancer cells to determine whether or not the compounds of the invention are capable of intersecting with cancer cells to minimize or eliminate such cells. The assay involves establishing colonies of such cells and then treating them with the test compound under specified conditions and analysis regima to determine results.\n(§2) Cell Plating: • Seed cells ˜16 hrs prior to compound treatment • Plate 25 μL of A549 cells in every well of 384-well plate using multidrop. • Two (2) black plates for IF at 2500 cells/well • Let plate sit at room temp for 10-15 minutes prior to putting in incubator to allow cells to stick in middle of plate. • One (1) white plate for viability at 500 cells/well.\n(§3) Treat Cells: • Serial dilute compounds with a 10 point 2-fold serial dilution in DMSO to make 250× stock compound solution • Dilute compounds 1:125 in cell culture media to make a 2× solution • Add 25 μl of dilution compounds to cell plates in well duplicates • Put cells back in incubator (6 hr incubation for black plates, 72 hr incubation for white plates).\nViability Assay: • Thaw an aliquot of frozen cell titer glo (Promega G7572) at room temperature. • Add 45 mL of NaCl/PBS solution to 5 ml of cell titer glo (10×). • Remove white plates from incubator, leave at room temp for 30 minutes. • Add 25 μl of diluted cell titer glo to each well. • Shake plate for >1 minute. • Incubate plate for >5 minutes to stabilize luminescence. • Luminescence is stable for up to 3 hours. • Read luminescence on plate reader"}, "K48-Ub": {"test_system": "K48-Ub", "assay": "K48-Ub immunofluorescence assay in A549 cells", "type": "cell-based", "conditions": "Homo sapiens, 6 hr incubation", "description": "Image-analysis is used to generate quantitative data from these assays that can be fit to a four-parameter sigmoid curve to derive IC50 values. Substrates of the ubiquitin-proteasome system, such as p53, are monitored after tumor cell lines are incubated with compounds for several hours. Accumulation of these proteins indicates an inhibition of proteasome-mediated degradation. Accumulation of lysine-48 chain linkage of poly-ubiquitin is also monitored by immunofluorescence as an indicator of ubiquitin-proteasome system inhibition. Both LC3 and SQSTM1 are mediators of autophagy. The localization and amounts of these proteins are monitored by immunofluorescence and report on the activity and inhibition of autophagy in response to p97 inhibition.\nas §1, §2, §3\nFix/Stain Black Plates: • Incubate cells in black plates with compound at 37 deg C. for 6 hrs. • add 15 μL of 16% Paraformaldehyde (PFA) directly into media of each well, • incubate at room temp for 5 min, flick plate and wash in 50 μL of PBS • block in 50 μL of Blocking Buffer for 30 minutes (can go up to several hours) • Blocking buffer: 1×PBS, 1% BSA, 0.3% Triton-X100, Hoechst (1:10,000) • incubate in 25 μL of primary antibody in blocking buffer at 4 deg C. over night\nSecondary Antibodies: • AlexaFluor488 Goat anti-Rabbit 1:2,000 (Life Tech A11008) • AlexaFluor555 Goat anti-Mouse 1:2,000 (Life Tech A21422) […]\nData Analysis: • Nuclear counts and cellular intensities of each markers are measured using Hoechst as a nuclear marker with an automated image analysis protocol using Matlab software (Math Works)"}}, "data": [{"smiles": "Cc1nc(NCc2ccccc2)nc(-n2c(C)cc3c(C(N)=O)cccc32)n1", "note": "[1-(4-(benzylamino)-6-methyl-1,3,5-triazin-2-yl)-2-methyl-1H-indole-4-carboxamide]", "values": [{"measurement": "IC50", "setting": "p97", "result": "< 0.1", "unit": "µM"}, {"measurement": "IC50", "setting": "A549 cells", "result": "< 10", "unit": "µM"}, {"measurement": "IC50", "setting": "K48-Ub", "result": "< 3", "unit": "µM"}]}, {"smiles": "Cc1nnc(-n2c(C)cc3c(C(N)=O)cccc32)nc1NCc1cccc(F)c1", "note": "[1-(5-((3-fluorobenzyl)amino)-6-methyl-1,2,4-triazin-3-yl)-2-methyl-1H-indole-4-carboxamide]", "values": [{"measurement": "IC50", "setting": "p97", "result": "< 1", "unit": "µM"}, {"measurement": "IC50", "setting": "A549 cells", "result": "< 10", "unit": "µM"}, {"measurement": "IC50", "setting": "K48-Ub", "result": "< 3", "unit": "µM"}]}, {"smiles": "CCc1nnc(-n2c(C)cc3c(C(N)=O)cccc32)nc1NCc1ccccc1", "note": "[1-(5-(benzylamino)-6-ethyl-1,2,4-triazin-3-yl)-2-methyl-1H-indole-4-carboxamide]", "values": [{"measurement": "IC50", "setting": "p97", "result": "< 0.03", "unit": "µM"}, {"measurement": "IC50", "setting": "A549 cells", "result": "< 1", "unit": "µM"}, {"measurement": "IC50", "setting": "K48-Ub", "result": "< 1", "unit": "µM"}]}, {"smiles": "COc1nc2c(C#N)cccc2n1-c1nnc(C)c(NCc2ccccc2)n1", "note": "[1-(5-(benzylamino)-6-methyl-1,2,4-triazin-3-yl)-2-methoxy-1H-benzo[d]imidazole-4-carbonitrile]", "values": [{"measurement": "IC50", "setting": "p97", "result": "< 10", "unit": "µM"}]}, {"smiles": "Cc1nnc(-n2c(C)cc3c(C(N)=O)cccc32)nc1NCc1ccccc1", "note": "[1-(5-(benzylamino)-6-methyl-1,2,4-triazin-3-yl)-2-methyl-1H-indole-4-carboxamide]", "values": [{"measurement": "IC50", "setting": "p97", "result": "< 0.03", "unit": "µM"}, {"measurement": "IC50", "setting": "A549 cells", "result": "< 3", "unit": "µM"}, {"measurement": "IC50", "setting": "K48-Ub", "result": "< 3", "unit": "µM"}]}, {"smiles": "Cc1nnc(-n2c(CN)cc3c(C(N)=O)cccc32)nc1NCc1ccccc1", "note": "[2-(aminomethyl)-1-(5-(benzylamino)-6-methyl-1,2,4-triazin-3-yl)-1H-indole-4-carboxamide]", "values": [{"measurement": "IC50", "setting": "p97", "result": "< 10", "unit": "µM"}]}, {"smiles": "CC(C)NCC(O)COc1cccc2ccccc12", "note": "(stereo not shown) [Propranolol]", "values": [{"measurement": "Peff A B, Range", "setting": "Caco-2 cells; pH 7.4 Caco-2, A to B", "result": "18.50-36.80 ×E−6 cm/sec"}, {"measurement": "Peff B A, Range", "setting": "Caco-2 cells; pH 7.4 Caco-2, B to A", "result": "16.30-31.40 ×E−6 cm/sec"}]}]}
